# Laboratory results: paper PMC2668073, “N- and C-Terminal Domains of the Calcium Binding Protein EhCaBP1 of the Parasite Entamoeba histolytica Display Distinct Functions” (PLoS ONE, 2009)
# Molecular target: T1, EhCaBP1 (Entamoeba histolytica, UniProt P38505)
# T1 construct: gene CaBP1; trimer, Phe site between EF1 and EF2 of neighbouring molecules; C-terminal half without density; strain printed for amoeba culture only
# Assay: X-ray crystal structure of the complex (co-crystallisation)
# Type: binding
# Details: 2 mM phenylalanine, 10 mM CaCl2 in protein solution; crystals from 63-65% MPD, 5 mM CaCl2, 50 mM acetate pH 4, 16 °C; hydrophobic pocket between EF1 and EF2 of adjacent molecules
# T1 sequence (P38505 whole entry): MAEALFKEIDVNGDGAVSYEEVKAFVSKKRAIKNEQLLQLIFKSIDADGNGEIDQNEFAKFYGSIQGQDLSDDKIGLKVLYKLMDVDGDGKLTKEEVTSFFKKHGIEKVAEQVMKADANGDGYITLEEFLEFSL
structure (smiles),measurement,value
N[C@@H](Cc1ccccc1)C(=O)O [Phenylalanine],X-ray crystal structure of the complex (co-crystallisation),hydrophobic pocket formed at the interface between EF1 and EF2 in the assembled domain
